Experimental data reported in patent US10405547B2, “Substituted cyclic amides as herbicides” (FMC Corporation, priority 2015, dated 2019).

Key:
Format in all cases: in vivo
[1] = tested on: barnyardgrass (Echinochloa crus-galli); test: Test A preemergence, barnyardgrass; details: 0 to 100 scale (0 no effect, 100 complete control)
Method in brief: (§1)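 Visual injury on a 0 to 100 scale, about 10 days post-spray in the greenhouse. Postemergence plants measured 2–10 cm at one to two leaves; preemergence pots received a directed soil spray. Soil was a loam–sand blend.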

kochia (Kochia scoparia) [2] = test: Test A preemergence, kochia; details: 0 to 100 scale (0 no effect, 100 complete control)
Method in brief: as §1

[3] = tested on: ragweed (common ragweed, Ambrosia elatior); test: Test A preemergence, ragweed; details: 0 to 100 scale (0 no effect, 100 complete control)
Method in brief: as §1

[4] = tested on: ryegrass, Italian (Lolium multiflorum); test: Test A preemergence, Italian ryegrass; details: 0 to 100 scale (0 no effect, 100 complete control)
Method in brief: as §1

[5] = tested on: foxtail, giant (Setaria faberii); test: Test A preemergence, giant foxtail; details: 0 to 100 scale (0 no effect, 100 complete control)
Method in brief: as §1

[6] = tested on: pigweed (Amaranthus retroflexus); test: Test A preemergence, pigweed; details: 0 to 100 scale (0 no effect, 100 complete control)
Method in brief: as §1

[7] = tested on: barnyardgrass (Echinochloa crus-galli); test: Test A postemergence, barnyardgrass; details: 0 to 100 scale (0 no effect, 100 complete control)
Method in brief: as §1

kochia (Kochia scoparia) [8] = test: Test A postemergence, kochia; details: 0 to 100 scale (0 no effect, 100 complete control)
Method in brief: as §1

[9] = tested on: ragweed (common ragweed, Ambrosia elatior); test: Test A postemergence, ragweed; details: 0 to 100 scale (0 no effect, 100 complete control)
Method in brief: as §1

[10] = tested on: ryegrass, Italian (Lolium multiflorum); test: Test A postemergence, Italian ryegrass; details: 0 to 100 scale (0 no effect, 100 complete control)
Method in brief: as §1

[11] = tested on: foxtail, giant (Setaria faberii); test: Test A postemergence, giant foxtail; details: 0 to 100 scale (0 no effect, 100 complete control)
Method in brief: as §1

[12] = tested on: pigweed (Amaranthus retroflexus); test: Test A postemergence, pigweed; details: 0 to 100 scale (0 no effect, 100 complete control)
Method in brief: as §1

[13] = tested on: blackgrass (Alopecurus myosuroides); test: Test A postemergence, blackgrass; details: 0 to 100 scale (0 no effect, 100 complete control)
Method in brief: as §1

[14] = tested on: galium (catchweed bedstraw, Galium aparine); test: Test A postemergence, galium; details: 0 to 100 scale (0 no effect, 100 complete control)
Method in brief: as §1

[15] = tested on: wheat (Triticum aestivum); test: Test A postemergence, wheat; details: 0 to 100 scale (0 no effect, 100 complete control)
Method in brief: as §1

corn (Zea mays) = test: Test A postemergence, corn; details: 0 to 100 scale (0 no effect, 100 complete control)
Method in brief: as §1

rice (Oryza sativa) = test: Test B flooded paddy test, rice; details: 250 g ai/ha, applied to paddy water, visual rating after 13 to 15 days, scale 0 (no effect) to 100 (complete control)
Method in brief: (§2)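 Pots were flooded to 3 cm above the soil surface at treatment, compound applied directly to the paddy water, and that depth held throughout. Plants were kept in a greenhouse for 13 to 15 days, then visually rated against untreated controls.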

[16] = tested on: sedge, umbrella (small-flower umbrella sedge, Cyperus difformis); test: Test B flooded paddy test, umbrella sedge; details: 250 g ai/ha, applied to paddy water, visual rating after 13 to 15 days, scale 0 (no effect) to 100 (complete control)
Method in brief: as §2

[17] = tested on: ducksalad (Heteranthera limosa); test: Test B flooded paddy test, ducksalad; details: 250 g ai/ha, applied to paddy water, visual rating after 13 to 15 days, scale 0 (no effect) to 100 (complete control)
Method in brief: as §2

[18] = tested on: barnyardgrass (Echinochloa crus-galli); test: Test B flooded paddy test, barnyardgrass; details: 250 g ai/ha, applied to paddy water, visual rating after 13 to 15 days, scale 0 (no effect) to 100 (complete control)
Method in brief: as §2

[19] = 125 g ai/ha, visual injury, approximately 10 days
[20] = 500 g ai/ha, visual injury, approximately 10 days

SMILES | Plant response rating, Barnyardgrass ([1]; 125 g ai/ha) | Plant response rating, Kochia (kochia (Kochia scoparia) [2]; 125 g ai/ha) | Plant response rating, Ragweed ([3]; 125 g ai/ha) | Plant response rating, Ryegrass, Italian ([4]; 125 g ai/ha) | Plant response rating, Foxtail, Giant ([5]; 125 g ai/ha) | Plant response rating, Pigweed ([6]; 125 g ai/ha) | Plant response rating, Barnyardgrass [7, 19] | Plant response rating, Kochia (kochia (Kochia scoparia) [8]; [19]) | Plant response rating, Ragweed [9, 19] | Plant response rating, Ryegrass, Italian [10, 19] | Plant response rating, Foxtail, Giant [11, 19] | Plant response rating, Pigweed [12, 19] | Plant response rating, Blackgrass [13, 19] | Plant response rating, Galium [14, 19] | Plant response rating, Wheat [15, 19] | Plant response rating, Corn (corn (Zea mays); [19]) | Plant response rating, Rice (Flood) (rice (Oryza sativa)) | Plant response rating, Sedge, Umbrella (Flood) [16] | Plant response rating, Ducksalad (Flood) [17] | Plant response rating, Barnyardgrass (Flood) [18] | further results
CN1CC(c2cccc(Oc3ccc(F)cn3)c2)C(C(=O)Nc2cccc(C#N)c2F)C1=O (single isomer, unassigned) [Compound 88] | 30 | 30 | 0 | 20 | 90 | 20 | 80 | 30 | 0 | 0 | 70 | 20 | 0 | 40 | 60 | 20 | 0 | 0 | 50 | 0 | Plant response rating, Barnyardgrass ([1]; 31 g ai/ha): 0; Plant response rating, Kochia (kochia (Kochia scoparia) [2]; 31 g ai/ha): 0; Plant response rating, Ragweed ([3]; 31 g ai/ha): 0; Plant response rating, Ryegrass, Italian ([4]; 31 g ai/ha): 0; Plant response rating, Foxtail, Giant ([5]; 31 g ai/ha): 30; Plant response rating, Pigweed ([6]; 31 g ai/ha): 0; Plant response rating, Barnyardgrass ([7]; 31 g ai/ha): 30; Plant response rating, Kochia (kochia (Kochia scoparia) [8]; 31 g ai/ha): 0; Plant response rating, Ragweed ([9]; 31 g ai/ha): 0; Plant response rating, Ryegrass, Italian ([10]; 31 g ai/ha): 0; Plant response rating, Foxtail, Giant ([11]; 31 g ai/ha): 30; Plant response rating, Pigweed ([12]; 31 g ai/ha): 0; Plant response rating, Blackgrass ([13]; 31 g ai/ha): 0; Plant response rating, Galium ([14]; 31 g ai/ha): 30; Plant response rating, Wheat ([15]; 31 g ai/ha): 0; Plant response rating, Corn (corn (Zea mays); 31 g ai/ha): 0
CN1CC(c2cccc(Oc3ccc(F)cn3)c2)C(C(=O)Nc2cccc(F)c2C#N)C1=O (single isomer, unassigned) [Compound 89] | 70 | 0 | 0 | 40 | 90 | 60 | 70 | 0 | 0 | 20 | 70 | 50 | 20 | 40 | 0 | 0 | 0 | 0 | 70 | 0 | Plant response rating, Barnyardgrass ([1]; 31 g ai/ha): 30; Plant response rating, Kochia (kochia (Kochia scoparia) [2]; 31 g ai/ha): 0; Plant response rating, Ragweed ([3]; 31 g ai/ha): 0; Plant response rating, Ryegrass, Italian ([4]; 31 g ai/ha): 0; Plant response rating, Foxtail, Giant ([5]; 31 g ai/ha): 40; Plant response rating, Pigweed ([6]; 31 g ai/ha): 0; Plant response rating, Barnyardgrass ([7]; 31 g ai/ha): 30; Plant response rating, Kochia (kochia (Kochia scoparia) [8]; 31 g ai/ha): 0; Plant response rating, Ragweed ([9]; 31 g ai/ha): 0; Plant response rating, Ryegrass, Italian ([10]; 31 g ai/ha): 0; Plant response rating, Foxtail, Giant ([11]; 31 g ai/ha): 30; Plant response rating, Pigweed ([12]; 31 g ai/ha): 0; Plant response rating, Blackgrass ([13]; 31 g ai/ha): 0; Plant response rating, Galium ([14]; 31 g ai/ha): 30; Plant response rating, Wheat ([15]; 31 g ai/ha): 0; Plant response rating, Corn (corn (Zea mays); 31 g ai/ha): 0
O=C1NCC(c2cccc(CN3CCOCC3)c2)C1C(=O)Nc1cccc(F)c1F (single isomer, unassigned) [Compound 90] | 0 | 0 | 0 | 0 | 0 | 0 | 0 | 0 | 0 | 0 | 0 | 0 | 0 | 0 | 0 | 0 | 0 | 0 | 0 | 0 | Plant response rating, Barnyardgrass ([1]; 31 g ai/ha): 0; Plant response rating, Kochia (kochia (Kochia scoparia) [2]; 31 g ai/ha): 0; Plant response rating, Ragweed ([3]; 31 g ai/ha): 0; Plant response rating, Ryegrass, Italian ([4]; 31 g ai/ha): 0; Plant response rating, Foxtail, Giant ([5]; 31 g ai/ha): 0; Plant response rating, Pigweed ([6]; 31 g ai/ha): 0; Plant response rating, Barnyardgrass ([7]; 31 g ai/ha): 0; Plant response rating, Kochia (kochia (Kochia scoparia) [8]; 31 g ai/ha): 0; Plant response rating, Ragweed ([9]; 31 g ai/ha): 0; Plant response rating, Ryegrass, Italian ([10]; 31 g ai/ha): 0; Plant response rating, Foxtail, Giant ([11]; 31 g ai/ha): 0; Plant response rating, Pigweed ([12]; 31 g ai/ha): 0; Plant response rating, Blackgrass ([13]; 31 g ai/ha): 0; Plant response rating, Galium ([14]; 31 g ai/ha): 0; Plant response rating, Wheat ([15]; 31 g ai/ha): 0; Plant response rating, Corn (corn (Zea mays); 31 g ai/ha): 0
O=C1NCC(c2cccc(OCc3ccco3)c2)C1C(=O)Nc1ccccc1Cl (stereo not drawn) [Compound 1] | 0 | 0 | 0 | 0 | 0 | 0 | 0 | 0 | 0 | 0 | 0 | 0 | 0 | 0 | 0 | 0 | 0 | 30 | 65 | 0 | Plant response rating, Barnyardgrass ([1]; 500 g ai/ha): 0; Plant response rating, Kochia (kochia (Kochia scoparia) [2]; 500 g ai/ha): 0; Plant response rating, Ragweed ([3]; 500 g ai/ha): 0; Plant response rating, Ryegrass, Italian ([4]; 500 g ai/ha): 0; Plant response rating, Foxtail, Giant ([5]; 500 g ai/ha): 0; Plant response rating, Pigweed ([6]; 500 g ai/ha): 0; Plant response rating, Barnyardgrass [7, 20]: 0; Plant response rating, Kochia (kochia (Kochia scoparia) [8]; [20]): 0; Plant response rating, Ragweed [9, 20]: 30; Plant response rating, Ryegrass, Italian [10, 20]: 0; Plant response rating, Foxtail, Giant [11, 20]: 0; Plant response rating, Pigweed [12, 20]: 0; Plant response rating, Blackgrass [13, 20]: 0; Plant response rating, Galium [14, 20]: 0; Plant response rating, Wheat [15, 20]: 0; Plant response rating, Corn (corn (Zea mays); [20]): 0
O=C1NCC(c2cccc(OCc3ccco3)c2)C1C(=O)Nc1ccccc1C(F)(F)F (stereo not drawn) [Compound 2] | 0 | 0 | 0 | 0 | 0 | 0 | 0 | 0 | 0 | 0 | 0 | 0 | 0 | 0 | 0 | 0 | 0 | 0 | 0 | 0 | Plant response rating, Barnyardgrass ([1]; 500 g ai/ha): 30; Plant response rating, Kochia (kochia (Kochia scoparia) [2]; 500 g ai/ha): 0; Plant response rating, Ragweed ([3]; 500 g ai/ha): 0; Plant response rating, Ryegrass, Italian ([4]; 500 g ai/ha): 0; Plant response rating, Foxtail, Giant ([5]; 500 g ai/ha): 20; Plant response rating, Pigweed ([6]; 500 g ai/ha): 0; Plant response rating, Barnyardgrass [7, 20]: 0; Plant response rating, Kochia (kochia (Kochia scoparia) [8]; [20]): 0; Plant response rating, Ragweed [9, 20]: 0; Plant response rating, Ryegrass, Italian [10, 20]: 10; Plant response rating, Foxtail, Giant [11, 20]: 10; Plant response rating, Pigweed [12, 20]: 0; Plant response rating, Blackgrass [13, 20]: 0; Plant response rating, Galium [14, 20]: 0; Plant response rating, Wheat [15, 20]: 0; Plant response rating, Corn (corn (Zea mays); [20]): 0
